Assay results as given in ChEMBL document CHEMBL1201862, “PubChem BioAssay data set” (2004).
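Protocol summary: plate cells (96-well), add compound at 5 concentrations, incubate 48 h, interpolate endpoints linearly. At the GI50, growth is halved.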 The source made the active and inactive calls. Cut-off read from the data, not from the text of the source: active = GI50 up to about 1.1 µM and inactive = higher.

Key:
Assay in all cases: DTP human tumour cell line panel, 48 h
DMS-114 = tested on: DMS-114
HOP-18 = tested on: HOP-18
LXFL 529 = tested on: LXFL 529
M19-MEL = tested on: M19-MEL
SNB-78 = tested on: SNB-78
BT-549 = tested on: BT-549
DMS-273 = tested on: DMS-273
RXF 631 = tested on: RXF 631
XF498 = tested on: XF498

Row | Compound | GI50 (M19-MEL) | GI50 (SNB-78) | GI50 (BT-549) | also measured
1 | CCCC/C(C)=N/NC(N)=S | > 100 µM (inactive) | > 100 µM (inactive) | – | GI50 (DMS-114): > 100 µM (inactive); GI50 (HOP-18): > 100 µM (inactive); GI50 (LXFL 529): > 100 µM (inactive)
2 | Cc1noc(/N=C2\C=C(O)C(=O)c3ccccc32)c1C | – | – | 1.05 µM (active) | –
3 | CCN1CCC(O)(c2ccc([N+](=O)[O-])cc2)C(C(=O)c2ccc([N+](=O)[O-])cc2)C1 (stereo unspecified) | – | – | 16.9 µM (inactive) | –
4 | N#Cc1cnn2ccn(C3OC(COC(=O)c4ccccc4)C(OC(=O)c4ccccc4)C3OC(=O)c3ccccc3)c12 (stereo unspecified) | – | – | > 100 µM (inactive) | –
5 | S=C(N/N=C(/c1ccccc1)c1ccccn1)N1CCCCCC1 | – | – | 0.564 µM (active) | –
6 | COc1ccc(C(=O)N2CCc3c([nH]c4ccccc34)C2C(=O)O)o1 (stereo unspecified) | – | – | > 10 µM (inactive) | –
7 | COc1ccc(/C(=N/O)C(c2ccc(OC)cc2)C2C(=O)Oc3ccccc32)cc1 (stereo unspecified) | 68.5 µM (inactive) | > 100 µM (inactive) | – | GI50 (DMS-114): 26.6 µM (inactive); GI50 (HOP-18): > 100 µM (inactive); GI50 (LXFL 529): 36.3 µM (inactive)
8 | CN(Cc1cnc2c(N)nc(N)nc2n1)c1ccc(Cl)cc1 | – | – | > 100 µM (inactive) | –
9 | COc1cc2cc(C(=O)N3CC(CCl)c4c3cc(NC(=O)OCc3ccc([N+](=O)[O-])cc3)c3ccccc43)[nH]c2c(OC)c1OC (stereo unspecified) | – | – | 97.3 µM (inactive) | –
10 | CCOC(=O)[C@@]12CCC(C1=O)[C@](C)(O)C[C@@H]2c1ccccc1 | – | – | 58.5 µM (inactive) | –
11 | COc1cc(C(=O)C2C(=O)c3ccccc3C2C2(O)c3ccccc3CC2C(O)c2cc(OC)c(OC)c(OC)c2)cc(OC)c1OC (stereo unspecified) | – | – | > 100 µM (inactive) | –
12 | CCO/N=[N+](\[O-])N(CC)CC | > 100 µM (inactive) | > 100 µM (inactive) | – | GI50 (DMS-273): > 100 µM (inactive); GI50 (LXFL 529): > 100 µM (inactive); GI50 (RXF 631): > 100 µM (inactive); GI50 (XF498): > 100 µM (inactive)
13 | Nc1cccc(C#Cc2cccc(C#Cc3cccc(N)n3)n2)n1 | – | – | > 100 µM (inactive) | –
14 | N#CC(c1nc2ccccc2nc1Cl)S(=O)(=O)c1ccccc1 (stereo unspecified) | > 100 µM (inactive) | 25.8 µM (inactive) | – | GI50 (DMS-114): > 100 µM (inactive); GI50 (DMS-273): > 100 µM (inactive); GI50 (LXFL 529): 46.6 µM (inactive); GI50 (XF498): 37.6 µM (inactive)
15 | O=C(CN1CCCCC1)Nc1ccc2sc3ccccc3c(=O)c2n1 | – | – | 19.3 µM (inactive) | –
16 | NCCCn1c2ccccc2c2c3c(c4c(c21)CCC(O)CC4)C(=O)NC3=O (stereo unspecified) | – | – | 4.81 µM (inactive) | –

Row | Compound | GI50 (M19-MEL) | GI50 (SNB-78) | GI50 (BT-549) | also measured
17 | Cc1cccc(-n2c(=S)[nH]c3c(sc(=O)n3-c3ccccc3C)c2=O)c1 | > 100 µM (inactive) | > 100 µM (inactive) | – | GI50 (DMS-114): > 100 µM (inactive); GI50 (DMS-273): > 100 µM (inactive); GI50 (HOP-18): > 100 µM (inactive); GI50 (LXFL 529): > 100 µM (inactive); GI50 (RXF 631): > 100 µM (inactive)
18 | CCOc1c(OC)cc(CNNc2nccs2)cc1OC | – | – | 41.5 µM (inactive) | –
19 | CSC(=S)N/N=C(\C)c1cccc(C)n1 | – | – | 5.19 µM (inactive) | –
20 | COc1cc(/C=C2\C[C@H]3[C@@H]4CC=C5C[C@@H](O)CC[C@]5(C)[C@H]4CC[C@]3(C)[C@H]2O)cc(OC)c1OC | – | – | 15.4 µM (inactive) | –
21 | C=C1C(=O)OC2/C=C(\C)CC(O)/C=C(/CO)CC(OC(=O)/C(C)=C/C)C12 (stereo unspecified) | 23 µM (inactive) | 49.4 µM (inactive) | – | GI50 (DMS-114): 14.3 µM (inactive); GI50 (DMS-273): 24 µM (inactive); GI50 (HOP-18): 26.3 µM (inactive); GI50 (XF498): 12.2 µM (inactive)
22 | COC(=O)CP1(=O)OC2C(C3CCC2(C)C3(C)C)N1c1cc(C(F)(F)F)cc(C(F)(F)F)c1 (stereo unspecified) | – | – | 27.2 µM (inactive) | –
23 | c1ccc2cc(-c3cc(-c4cc(-c5ccc6ccccc6c5)on4)no3)ccc2c1 | – | – | > 100 µM (inactive) | –
24 | C=CCCC(OCOCCOC)c1cc(C)c(O[Si](C)(C)C(C)(C)C)c(C)c1 (stereo unspecified) | 17.9 µM (inactive) | > 100 µM (inactive) | – | GI50 (DMS-114): 11.7 µM (inactive); GI50 (HOP-18): 28.6 µM (inactive); GI50 (LXFL 529): 22.8 µM (inactive); GI50 (RXF 631): 15.4 µM (inactive)
25 | CN(C)Cc1cc(/C(=C(\C#N)c2ccccc2)c2ccc(O)cc2)ccc1O | 16.9 µM (inactive) | 32.1 µM (inactive) | – | GI50 (DMS-114): 15.1 µM (inactive); GI50 (DMS-273): 17.4 µM (inactive); GI50 (HOP-18): 19.9 µM (inactive); GI50 (LXFL 529): 18.2 µM (inactive); GI50 (RXF 631): 17.8 µM (inactive)
26 | CSc1nn(C)cc2ncnc1-2 | – | – | > 100 µM (inactive) | –
27 | COC(=O)C(C#N)C1NC(=O)c2ccccc21 (stereo unspecified) | > 100 µM (inactive) | > 100 µM (inactive) | – | GI50 (DMS-114): > 100 µM (inactive); GI50 (DMS-273): > 100 µM (inactive); GI50 (HOP-18): > 100 µM (inactive); GI50 (RXF 631): > 100 µM (inactive)
28 | Nc1ccc(-c2ncc3cc(-c4cccc(-c5cc6cnc(-c7ccc(N)cc7)nc6c6ccccc56)c4)c4ccccc4c3n2)cc1 | – | – | > 100 µM (inactive) | –
29 | O=C1Nc2c(Cl)cccc2/C1=N/Nc1ccccc1[N+](=O)[O-] | – | – | 28 µM (inactive) | –
30 | COC(=O)/C(=N/NC(C)(C)C)C(C(=O)OC)C(=O)C(=O)Nc1nc2ccc([N+](=O)[O-])cc2s1 (stereo unspecified) | > 100 µM (inactive) | > 100 µM (inactive) | – | GI50 (DMS-114): > 100 µM (inactive); GI50 (LXFL 529): > 100 µM (inactive); GI50 (XF498): > 100 µM (inactive)
31 | Brc1ccc2c(-c3csc(-c4c[nH]c5cc(Br)ccc45)n3)c[nH]c2c1 | – | – | > 64.1 µM (inactive) | –
32 | COc1cc(C=O)ccc1Oc1nnnn1-c1ccccc1 | – | – | 66.2 µM (inactive) | –
